# US11401271B2, “Fused heterocyclic compound, pyrazole-ring-containing fused heterocyclic compound, agricultural composition containing thereof, and method of using the composition” (SOUTH CHINA AGRICULTURAL UNIVERSITY, priority 2017, dated 2022)
# Test system: Plutella xylostella
# Experiment: whole plant or invertebrate
# Format: in vivo
# Conditions: 500 ppm; 2nd-instar larvae, leaf immersion feeding
# Protocol: (1) Insecticidal Activity on 2nd-Instar Larvae of Plutella xylostella.
# Plutella xylostella (L.) is a lepidoptera pest with a chewing mouthpart and is a common vegetable pest. The 2nd-instar larvae of Plutella xylostella were used as test objects and tested by using a leaf immersion feeding method.
# (§1) Operation process: Samples were weighed accurately, and respectively added with 200 μL of dimethyl sulfoxide to prepare 10 g/L mother liquor which was diluted into a concentration of 500 ppm with an aqueous solution containing 0.05% of Tween-80 during the test. A hole puncher with a diameter of 1.0 cm was used to make cleaned cabbage leaves into leaf discs. The leaf discs were immersed in a liquid medicine, taken out after 5 seconds, air-dried naturally, and transferred into a clean vessel. About 35 2nd-instar larvae of Plutella xylostella were put into the vessel and fed at a constant temperature of 28° C. Each concentration was repeated 3 times, and an aqueous solution containing 0.05% of Tween-80 was used as a control group. After being treated for 24 hours, a number of dead Plutella xylostella was counted, and a mortality (%) was calculated according to a formula that mortality (%)=(number of live larvae in the control group−number of treated live larvae)/number of live larvae in the control group*100%.
row,SMILES,Plutella xylostella Mortality (%) 500 ppm [%]
1,COC(=O)CC1(C(=O)OC)Nc2c([S+]([O-])C(F)(F)F)c(C#N)nn2-c2ncc(C(F)(F)F)cc21 (stereo not drawn) [a-1],100

# Same assay, conditions: Plutella xylostella, read-out: Plutella xylostella Mortality (%) 500 ppm
row,SMILES,mortality at 500 ppm [%]
1,CC(=O)c1nn2c(c1[S+](C)[O-])NC(CO)(CC#N)c1cc(C(F)(F)F)cc(Cl)c1-2 (stereo not drawn) [Compound C27],76
2,N#CCC1(CBr)Nc2c([S+]([O-])C(F)(F)F)c(C#N)nn2-c2c(Cl)cc(C(F)(F)F)cc21 (stereo not drawn) [Compound C28],100
3,CNC(=O)C1(CC#N)Nc2c([S+]([O-])C(F)(F)F)c(C#N)nn2-c2c(Cl)cc(C(F)(F)F)cc21 (stereo not drawn) [Compound C33],100
4,CN1CCN(C(=O)C2(CC#N)Nc3c([S+]([O-])C(F)(F)F)c(C#N)nn3-c3c(Cl)cc(C(F)(F)F)cc32)CC1 (stereo not drawn) [Compound C34],100
5,COC(=O)CC1(C(=O)OC)c2cc(C(F)(F)F)cc(Cl)c2-n2nc(C#N)c([S+]([O-])C(F)(F)F)c2N1C (stereo not drawn) [Compound C39],90
6,CC(=O)c1nn2c(c1[S+](C)[O-])NC(CBr)(CC#N)c1cc(C(F)(F)F)cc(Cl)c1-2 (stereo not drawn) [Compound C41],89
7,CNCC1(CC#N)Nc2c([S+](C)[O-])c(C(C)=O)nn2-c2c(Cl)cc(C(F)(F)F)cc21 (stereo not drawn) [Compound C42],91
8,COC(=O)C1(CC#N)Nc2c([S+](C)[O-])c(C(C)=O)nn2-c2c(Cl)cc(C(F)(F)F)cc21 (stereo not drawn) [Compound C44],90

# Test system: Spodoptera exigua
# Experiment: whole plant or invertebrate
# Format: in vivo
# Conditions: 500 ppm; 2nd-instar larvae; leaf immersion feeding; 24 hours
# Protocol: (2) Insecticidal Activity on 2nd-Instar Larvae of Spodoptera exigua.
# Spodoptera exigua is a lepidoptera pest with a chewing mouthpart and is a common vegetable pest. The 2nd-instar larvae of Spodoptera exigua were used as test objects and tested by using a leaf immersion feeding method.
# as §1, with “μL,” for “μL”, “2nd -instar” for “2nd-instar”, “Spodoptera exigua” for “Plutella xylostella”, “group −number” for “group−number”, “group * 100%.” for “group*100%.”
row,SMILES,Spodoptera exigua Mortality (%) 500 ppm [%]
1,COC(=O)CC1(C(=O)OC)Nc2c([S+]([O-])C(F)(F)F)c(C#N)nn2-c2ncc(C(F)(F)F)cc21 (stereo not drawn) [a-1],100

# Same assay, conditions: Spodoptera exigua, 24 h, read-out: Spodoptera exigua Mortality (%) 500 ppm
row,SMILES,mortality at 500 ppm [%]
1,CC(=O)c1nn2c(c1[S+](C)[O-])NC(CO)(CC#N)c1cc(C(F)(F)F)cc(Cl)c1-2 (stereo not drawn) [Compound C27],86
2,N#CCC1(CBr)Nc2c([S+]([O-])C(F)(F)F)c(C#N)nn2-c2c(Cl)cc(C(F)(F)F)cc21 (stereo not drawn) [Compound C28],100
3,CNC(=O)C1(CC#N)Nc2c([S+]([O-])C(F)(F)F)c(C#N)nn2-c2c(Cl)cc(C(F)(F)F)cc21 (stereo not drawn) [Compound C33],100
4,CN1CCN(C(=O)C2(CC#N)Nc3c([S+]([O-])C(F)(F)F)c(C#N)nn3-c3c(Cl)cc(C(F)(F)F)cc32)CC1 (stereo not drawn) [Compound C34],100
5,COC(=O)CC1(C(=O)OC)c2cc(C(F)(F)F)cc(Cl)c2-n2nc(C#N)c([S+]([O-])C(F)(F)F)c2N1C (stereo not drawn) [Compound C39],100
6,CC(=O)c1nn2c(c1[S+](C)[O-])NC(CBr)(CC#N)c1cc(C(F)(F)F)cc(Cl)c1-2 (stereo not drawn) [Compound C41],94
7,CNCC1(CC#N)Nc2c([S+](C)[O-])c(C(C)=O)nn2-c2c(Cl)cc(C(F)(F)F)cc21 (stereo not drawn) [Compound C42],94
8,COC(=O)C1(CC#N)Nc2c([S+](C)[O-])c(C(C)=O)nn2-c2c(Cl)cc(C(F)(F)F)cc21 (stereo not drawn) [Compound C44],100

# Test system: Aphis craccivora
# Experiment: whole plant or invertebrate
# Format: in vivo
# Conditions: 500 ppm; wingless adults; impregnation method; 24 hours
# Protocol: (3) Insecticidal Activity on Aphid Adults.
# Aphid is a homoptera pest with a piercing-sucking mouthpart and is a common vegetable pest. Aphis craccivora were taken as test objects and tested by using an impregnation method.
# Operation process: Samples were weighed accurately, and respectively added with 200 μL of dimethyl sulfoxide to prepare 10 g/L mother liquor which was diluted into a concentration of 500 ppm with an aqueous solution containing 0.05% of Tween-80 during the test. After the wingless Aphis craccivora adults stably sucked on bean sprouts, the wingless Aphis craccivora adults together with the bean sprouts were immersed into a liquid medicine with a concentration of 500 ppm, taken out after 5 seconds, air-dried naturally, transferred into a clean vessel, and fed at a constant temperature of 23° C. Each concentration was repeated 3 times, and an aqueous solution containing 0.05% of Tween-80 was used as a control group. After being treated for 24 hours, a number of dead Aphis craccivora was counted, and a mortality (%) was calculated according to a formula that mortality (%)=(number of live Aphis craccivora in the control group−number of treated live Aphis craccivora)/number of live Aphis craccivora in the control group*100%.
row,SMILES,Aphis craccivora Mortality (%) 500 ppm [%]
1,COC(=O)CC1(C(=O)OC)Nc2c([S+]([O-])C(F)(F)F)c(C#N)nn2-c2ncc(C(F)(F)F)cc21 (stereo not drawn) [a-1],100

# Same assay, conditions: Aphis craccivora, 24 h, read-out: Aphis craccivora Mortality (%) 500 ppm
row,SMILES,mortality at 500 ppm [%]
1,CC(=O)c1nn2c(c1[S+](C)[O-])NC(CO)(CC#N)c1cc(C(F)(F)F)cc(Cl)c1-2 (stereo not drawn) [Compound C27],100
2,N#CCC1(CBr)Nc2c([S+]([O-])C(F)(F)F)c(C#N)nn2-c2c(Cl)cc(C(F)(F)F)cc21 (stereo not drawn) [Compound C28],100
3,CNC(=O)C1(CC#N)Nc2c([S+]([O-])C(F)(F)F)c(C#N)nn2-c2c(Cl)cc(C(F)(F)F)cc21 (stereo not drawn) [Compound C33],100
4,CN1CCN(C(=O)C2(CC#N)Nc3c([S+]([O-])C(F)(F)F)c(C#N)nn3-c3c(Cl)cc(C(F)(F)F)cc32)CC1 (stereo not drawn) [Compound C34],100
5,COC(=O)CC1(C(=O)OC)c2cc(C(F)(F)F)cc(Cl)c2-n2nc(C#N)c([S+]([O-])C(F)(F)F)c2N1C (stereo not drawn) [Compound C39],98
6,CC(=O)c1nn2c(c1[S+](C)[O-])NC(CBr)(CC#N)c1cc(C(F)(F)F)cc(Cl)c1-2 (stereo not drawn) [Compound C41],100
7,CNCC1(CC#N)Nc2c([S+](C)[O-])c(C(C)=O)nn2-c2c(Cl)cc(C(F)(F)F)cc21 (stereo not drawn) [Compound C42],100
8,COC(=O)C1(CC#N)Nc2c([S+](C)[O-])c(C(C)=O)nn2-c2c(Cl)cc(C(F)(F)F)cc21 (stereo not drawn) [Compound C44],100

# Test system: Solenopsis invicta
# Experiment: whole plant or invertebrate
# Format: in vivo
# Conditions: 100 ppm; 24 h; water test tube poison-feeding
# Protocol: (4) Insecticidal Activity on Solenopsis invicta.
# As a hymenoptera pests and a social insect, Solenopsis invicta is one of the most destructive invasive organisms. Solenopsis invicta were used as test objects and tested by using a water test tube poison-feeding method.
# Operation process: Samples were weighed accurately, and respectively added with 200 μL of dimethyl sulfoxide to prepare 10 g/L mother liquor which was diluted into a concentration of 100 ppm with a mixed aqueous solution containing 0.05% of Tween-80 and 5% of honey during the test. […] The raising test tube was placed in a raising box horizontally, and a small amount of ham sausages were added to the raising test tube as food to raise the Solenopsis invicta at a constant temperature of 25° C. After being treated for 24 hours and 72 hours, a number of live Solenopsis invicta and a number of dead Solenopsis invicta were counted, and a mortality (%) was calculated according to a formula that mortality (%)=(number of live Solenopsis invicta in the control group−number of treated live Solenopsis invicta)/number of live Solenopsis invicta in the control group*100%.
row,SMILES,Solenopsis invicta Mortality (%) 100 ppm 24 h [%]
1,COC(=O)CC1(C(=O)OC)Nc2c([S+]([O-])C(F)(F)F)c(C#N)nn2-c2ncc(C(F)(F)F)cc21 (stereo not drawn) [a-1],20

# Same assay, conditions: 100 ppm; 72 h; water test tube poison-feeding
row,SMILES,Solenopsis invicta Mortality (%) 100 ppm 72 h [%]
1,COC(=O)CC1(C(=O)OC)Nc2c([S+]([O-])C(F)(F)F)c(C#N)nn2-c2ncc(C(F)(F)F)cc21 (stereo not drawn) [a-1],100

# Same assay, conditions: Solenopsis invicta, 24 h, read-out: Solenopsis invicta Mortality (%) 100 ppm 24 h, 100 ppm; 24 h; water test tube poison-feeding
row,SMILES,mortality at 100 ppm [%]
1,CC(=O)c1nn2c(c1[S+](C)[O-])NC(CO)(CC#N)c1cc(C(F)(F)F)cc(Cl)c1-2 (stereo not drawn) [Compound C27],27
2,N#CCC1(CBr)Nc2c([S+]([O-])C(F)(F)F)c(C#N)nn2-c2c(Cl)cc(C(F)(F)F)cc21 (stereo not drawn) [Compound C28],30
3,CNC(=O)C1(CC#N)Nc2c([S+]([O-])C(F)(F)F)c(C#N)nn2-c2c(Cl)cc(C(F)(F)F)cc21 (stereo not drawn) [Compound C33],36
4,CN1CCN(C(=O)C2(CC#N)Nc3c([S+]([O-])C(F)(F)F)c(C#N)nn3-c3c(Cl)cc(C(F)(F)F)cc32)CC1 (stereo not drawn) [Compound C34],40
5,COC(=O)CC1(C(=O)OC)c2cc(C(F)(F)F)cc(Cl)c2-n2nc(C#N)c([S+]([O-])C(F)(F)F)c2N1C (stereo not drawn) [Compound C39],24
6,CC(=O)c1nn2c(c1[S+](C)[O-])NC(CBr)(CC#N)c1cc(C(F)(F)F)cc(Cl)c1-2 (stereo not drawn) [Compound C41],19
7,CNCC1(CC#N)Nc2c([S+](C)[O-])c(C(C)=O)nn2-c2c(Cl)cc(C(F)(F)F)cc21 (stereo not drawn) [Compound C42],20
8,COC(=O)C1(CC#N)Nc2c([S+](C)[O-])c(C(C)=O)nn2-c2c(Cl)cc(C(F)(F)F)cc21 (stereo not drawn) [Compound C44],36

# Same assay, conditions: Solenopsis invicta, 72 h, read-out: Solenopsis invicta Mortality (%) 100 ppm 72 h, 100 ppm; 72 h; water test tube poison-feeding
row,SMILES,mortality at 100 ppm [%]
1,CC(=O)c1nn2c(c1[S+](C)[O-])NC(CO)(CC#N)c1cc(C(F)(F)F)cc(Cl)c1-2 (stereo not drawn) [Compound C27],86
2,N#CCC1(CBr)Nc2c([S+]([O-])C(F)(F)F)c(C#N)nn2-c2c(Cl)cc(C(F)(F)F)cc21 (stereo not drawn) [Compound C28],98
3,CNC(=O)C1(CC#N)Nc2c([S+]([O-])C(F)(F)F)c(C#N)nn2-c2c(Cl)cc(C(F)(F)F)cc21 (stereo not drawn) [Compound C33],100
4,CN1CCN(C(=O)C2(CC#N)Nc3c([S+]([O-])C(F)(F)F)c(C#N)nn3-c3c(Cl)cc(C(F)(F)F)cc32)CC1 (stereo not drawn) [Compound C34],100
5,COC(=O)CC1(C(=O)OC)c2cc(C(F)(F)F)cc(Cl)c2-n2nc(C#N)c([S+]([O-])C(F)(F)F)c2N1C (stereo not drawn) [Compound C39],87
6,CC(=O)c1nn2c(c1[S+](C)[O-])NC(CBr)(CC#N)c1cc(C(F)(F)F)cc(Cl)c1-2 (stereo not drawn) [Compound C41],90
7,CNCC1(CC#N)Nc2c([S+](C)[O-])c(C(C)=O)nn2-c2c(Cl)cc(C(F)(F)F)cc21 (stereo not drawn) [Compound C42],70
8,COC(=O)C1(CC#N)Nc2c([S+](C)[O-])c(C(C)=O)nn2-c2c(Cl)cc(C(F)(F)F)cc21 (stereo not drawn) [Compound C44],90
